Results as given in ChEMBL document CHEMBL5634187, “Identification of Selective Imidazopyridine CSF1R Inhibitors” (ACS Med Chem Lett, 2024).
Values after ≈ are worked out from the molar mass of the structure shown.

Columns and labels:
[1] = target: CYP450 (isoform not stated) (Homo sapiens, UniProt P04798+P05177+P05181+P08684+P10632+P10635+P11509+P11712+P13584+P20813+P20815+P20853+P24462+P24903+P33260+P33261+P51589+P78329+P98187+Q02928+Q08477+Q16678+Q16696+Q5TCH4+Q6VVX0+Q7Z449+Q8TAV3+Q96SQ9+Q9HB55); test: in vitro
[2] = target: Mast/stem cell growth factor receptor Kit (Homo sapiens, UniProt P10721)
Description: Inhibition of c-Kit (unknown origin)

physchem [3] = settings: buffer, pH 7.4
Description: Solubility of compound at pH 7.4

in vitro [4] = settings: human, liver microsomes
Description: Intrinsic clearance in human liver microsomes

in vitro [5] = settings: human, Caco-2
Description: Permeability in human Caco-2 cells

physchem [6] = settings: octanol/water
Description: Lipophilicity, logD of the compound

in vitro [7] = settings: rat, liver microsomes
Description: Intrinsic clearance in rat liver microsomes

in vivo [8] = settings: Sprague-Dawley, rat, po, 3 mg/kg
Cytochrome P450 3A4 = Cytochrome P450 3A4 (Homo sapiens, UniProt P08684); test: Inhibition of CYP450 3A4 (unknown origin) using midazolam as substrate; type: ADME
in vivo [9] = settings: Sprague-Dawley, rat, iv, 1 mg/kg
Description: Half-life in Sprague-Dawley rat at 1 mg/kg, iv

in vivo [10] = settings: Sprague-Dawley, rat, po, 3 mg/kg; remark: listed apart in the source
in vivo [11] = settings: Sprague-Dawley, rat, iv, 1 mg/kg; remark: listed apart in the source
in vivo [12] = settings: Sprague-Dawley, rat, po, 3 mg/kg; remark: listed apart in the source
in vivo [13] = settings: Sprague-Dawley, rat, iv, 1 mg/kg; remark: listed apart in the source
in vivo [14] = settings: Sprague-Dawley, rat, iv, 1 mg/kg; remark: listed apart in the source
Description: Clearance in Sprague-Dawley rat at 1 mg/kg, iv

in vivo [15] = settings: Sprague-Dawley, rat, po, 3 mg/kg; remark: listed apart in the source
Description: Half-life in Sprague-Dawley rat at 3 mg/kg, po

Cytochrome P450 3A4, sequence (P08684 whole entry): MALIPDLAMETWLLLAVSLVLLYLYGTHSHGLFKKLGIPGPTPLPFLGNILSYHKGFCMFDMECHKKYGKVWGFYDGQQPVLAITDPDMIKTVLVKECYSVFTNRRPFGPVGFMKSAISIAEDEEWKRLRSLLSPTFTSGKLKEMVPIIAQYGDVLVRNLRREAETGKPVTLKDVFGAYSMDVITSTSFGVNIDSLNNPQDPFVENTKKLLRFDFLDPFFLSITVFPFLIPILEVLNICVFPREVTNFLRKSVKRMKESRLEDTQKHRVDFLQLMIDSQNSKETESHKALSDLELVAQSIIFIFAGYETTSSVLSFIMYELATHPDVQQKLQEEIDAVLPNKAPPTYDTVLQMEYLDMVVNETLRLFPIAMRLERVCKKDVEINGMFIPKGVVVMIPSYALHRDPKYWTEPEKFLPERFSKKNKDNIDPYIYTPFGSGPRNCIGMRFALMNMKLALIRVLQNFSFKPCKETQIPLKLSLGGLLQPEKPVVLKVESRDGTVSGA
Mast/stem cell growth factor receptor Kit, sequence (P10721 whole entry): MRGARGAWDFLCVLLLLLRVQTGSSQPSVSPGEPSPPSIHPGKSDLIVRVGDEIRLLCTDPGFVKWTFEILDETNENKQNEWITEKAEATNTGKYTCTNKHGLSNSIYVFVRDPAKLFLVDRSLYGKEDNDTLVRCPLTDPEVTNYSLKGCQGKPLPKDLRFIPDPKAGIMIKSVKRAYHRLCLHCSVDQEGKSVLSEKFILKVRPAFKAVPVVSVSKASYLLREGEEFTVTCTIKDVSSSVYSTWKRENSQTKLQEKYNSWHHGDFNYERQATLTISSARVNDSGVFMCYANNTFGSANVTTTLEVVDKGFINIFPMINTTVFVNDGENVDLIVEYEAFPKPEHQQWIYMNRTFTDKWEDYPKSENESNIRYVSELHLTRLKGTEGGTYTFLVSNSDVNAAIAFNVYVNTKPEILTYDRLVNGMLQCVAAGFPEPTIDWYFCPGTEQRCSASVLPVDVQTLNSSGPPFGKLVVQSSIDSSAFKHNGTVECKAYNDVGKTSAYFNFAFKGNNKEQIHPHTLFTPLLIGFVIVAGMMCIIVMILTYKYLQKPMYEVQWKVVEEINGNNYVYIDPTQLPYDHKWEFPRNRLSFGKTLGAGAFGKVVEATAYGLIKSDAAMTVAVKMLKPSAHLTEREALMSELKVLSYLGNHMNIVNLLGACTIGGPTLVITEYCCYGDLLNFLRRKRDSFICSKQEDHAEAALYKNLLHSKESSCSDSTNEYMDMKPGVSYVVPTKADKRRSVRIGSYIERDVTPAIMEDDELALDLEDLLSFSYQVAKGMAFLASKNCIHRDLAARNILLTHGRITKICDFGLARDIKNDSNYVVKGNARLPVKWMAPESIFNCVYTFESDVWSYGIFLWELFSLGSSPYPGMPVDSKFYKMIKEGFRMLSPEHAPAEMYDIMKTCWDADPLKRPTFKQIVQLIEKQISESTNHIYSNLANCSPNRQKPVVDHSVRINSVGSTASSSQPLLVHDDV

Molecule `COc1ccc(COc2ccc(Cn3cnc4cc(C(=O)N5CC6(COC6)C5)cnc43)cc2OC)cn1` has an IC50 [1] greater than 10 µM.
With `COc1ccc(COc2ccc(Cn3cnc4cc(C(=O)N(C)C)cnc43)cc2OC)cn1` the IC50 [1] was greater than 10 µM.
Work on `Cc1nc(-c2cnc(NC(C)C)n(C)c2=O)ccc1Oc1ccnc(-c2cnn(C)c2)c1` [VIMSELTINIB] yielded an IC50 [2] of 0.48 µM.
Work on `COc1ccc(COc2ccc(Cn3cnc4cc(N5CCN(C)CC5)cnc43)cc2OC)cn1` yielded an IC50 [1] greater than 10 µM, a solubility (physchem [3]) greater than 450 µg/mL and a microsomal CLint (in vitro [4]) of 33 µL/min/mg. The Papp (in vitro [5]) was 29 ×10⁻⁶ cm/s, the logD (physchem [6]) was 2.3 and the microsomal CLint (in vitro [7]) was 130 µL/min/mg.
Work on `COc1ccc(COc2ccc(Cn3cnc4cc(C#CC5CCNC5)cnc43)cc2OC)cn1` (centres undefined) yielded an AUC(0-inf) (in vivo [8]) of 625 ng·h/mL, an IC50 (Cytochrome P450 3A4) of 6.6 µM and a solubility (physchem [3]) of 57 µg/mL (≈ 121 µM). For the same molecule, the microsomal CLint (in vitro [4]) was 16 µL/min/mg, the half-life (in vivo [9]) was 2 h and the bioavailability (in vivo [10]) was 36%. For the same molecule, the Papp (in vitro [5]) was 5.1 ×10⁻⁶ cm/s, the logD (physchem [6]) was 1.5 and the Vd (in vivo [11]) was 4.89 L/kg. The Cmax (in vivo [12]) was 108 ng/mL, the AUC(0-inf) (in vivo [13]) was 542 ng·h/mL and the clearance (in vivo [14]) was 31 mL/min/kg. For the same molecule, the half-life (in vivo [15]) was 1.7 h and the microsomal CLint (in vitro [7]) was 19 µL/min/mg.
In the case of `COc1ccc(COc2ccc(Cc3cnc(N)nc3N)cc2OC)cc1` [GW632580X], the IC50 [1] is reported as greater than 10 µM, the solubility (physchem [3]) is reported as 1.2 µg/mL (≈ 3.27 µM) and the Papp (in vitro [5]) is reported as 11 ×10⁻⁶ cm/s. The logD (physchem [6]) was 2.6.
Work on `COc1ccc(COc2ccc(Cn3cnc4cc(OC5CCNCC5)cnc43)cc2OC)cn1` yielded an IC50 [1] greater than 10 µM.
In the case of `COc1ccc(COc2ccc(Cn3cnc4cc(-n5cc(C(C)(C)N)nn5)cnc43)cc2OC)cn1`, the IC50 [1] is reported as greater than 10 µM, the solubility (physchem [3]) is reported as 13 µg/mL (≈ 26 µM) and the microsomal CLint (in vitro [4]) is reported as 21 µL/min/mg. For the same molecule, the Papp (in vitro [5]) was 2 ×10⁻⁶ cm/s, the logD (physchem [6]) was 1.6 and the microsomal CLint (in vitro [7]) was less than 7.2 µL/min/mg.
